# Measurements from paper PMC7997411, “Discovery and Optimization of Selective Inhibitors of Meprin α (Part II)” (Pharmaceuticals, 2021).
# Several values for one entry are separate records, joined by “and”; a condition that tells them apart may be missing. Equal entries are not always repeated. Where two headings read alike, the source gives them in different places.
# Columns and labels:
# [1] = target: T1, MMP13 (Homo sapiens, UniProt P45452); conditions: single value given, at 10 μM ref 11; cited from earlier work
# T1 construct: purchased R&D Systems 511-MM
# [2] = target: T2, MMP2 (Homo sapiens, UniProt P08253); conditions: single value given, at 10 μM ref 11; cited from earlier work
# T2 construct: purchased R&D Systems 902-MP
# T2 sequence (P08253 110-660): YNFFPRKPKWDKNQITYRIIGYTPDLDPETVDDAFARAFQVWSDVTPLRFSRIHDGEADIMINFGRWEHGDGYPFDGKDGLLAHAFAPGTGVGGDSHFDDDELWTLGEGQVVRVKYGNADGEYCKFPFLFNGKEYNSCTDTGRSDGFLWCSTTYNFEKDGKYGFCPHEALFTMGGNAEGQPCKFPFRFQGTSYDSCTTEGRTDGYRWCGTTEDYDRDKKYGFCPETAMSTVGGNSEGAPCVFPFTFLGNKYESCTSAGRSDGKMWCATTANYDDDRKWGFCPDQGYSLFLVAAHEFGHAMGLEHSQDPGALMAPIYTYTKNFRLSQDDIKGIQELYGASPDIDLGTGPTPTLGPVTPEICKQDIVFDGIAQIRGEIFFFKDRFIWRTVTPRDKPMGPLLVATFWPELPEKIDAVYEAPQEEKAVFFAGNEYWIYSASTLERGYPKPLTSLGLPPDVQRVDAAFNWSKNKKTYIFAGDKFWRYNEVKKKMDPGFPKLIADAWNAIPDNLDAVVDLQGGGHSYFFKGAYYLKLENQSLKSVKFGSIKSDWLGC
# [3] = target: T3, MMP9 (Homo sapiens, UniProt P14780); conditions: single value given, at 10 μM ref 11; cited from earlier work
# T3 construct: purchased R&D Systems 911-MP
# [4] = target: T4, ADAM17 (Homo sapiens, UniProt P78536); conditions: single value given, at 10 μM ref 11; cited from earlier work
# T4 construct: purchased R&D Systems 930-ADB
# [5] = target: T5, ADAM10 (Homo sapiens, UniProt O14672); conditions: single value given, at 10 μM ref 11; cited from earlier work
# T5 construct: purchased R&D Systems 936-AD
# T5 sequence (O14672 214-748): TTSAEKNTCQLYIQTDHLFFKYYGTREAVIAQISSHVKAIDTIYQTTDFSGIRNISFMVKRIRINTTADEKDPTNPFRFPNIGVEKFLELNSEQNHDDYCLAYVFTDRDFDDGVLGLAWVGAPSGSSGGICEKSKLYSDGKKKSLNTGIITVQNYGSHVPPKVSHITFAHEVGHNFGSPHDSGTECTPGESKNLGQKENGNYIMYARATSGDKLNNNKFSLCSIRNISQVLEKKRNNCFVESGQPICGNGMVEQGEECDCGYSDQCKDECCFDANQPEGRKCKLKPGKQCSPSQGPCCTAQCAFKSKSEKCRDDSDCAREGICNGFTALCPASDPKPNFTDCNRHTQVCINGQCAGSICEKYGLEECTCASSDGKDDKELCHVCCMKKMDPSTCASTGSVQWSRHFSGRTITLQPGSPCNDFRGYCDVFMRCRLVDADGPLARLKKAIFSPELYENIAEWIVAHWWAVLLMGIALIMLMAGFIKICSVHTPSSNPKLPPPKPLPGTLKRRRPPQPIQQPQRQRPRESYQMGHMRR
# [6] = tested on: Meprin α; conditions: cited from earlier work
# [7] = tested on: Meprin β; conditions: cited from earlier work
# [8] = target: T6, human meprin β (Homo sapiens, UniProt Q16820); test: Meprin β assay in a 384-well plate (fluorogenic substrate Mca-EDEDED-K(Dnp)); assay type: biochemical
# T6 construct: His-tag; made in house; host or cells: BTI-TN-5B1-4 insect cells (baculovirus, amplified in Sf9)
# T6 sequence (Q16820 62-701): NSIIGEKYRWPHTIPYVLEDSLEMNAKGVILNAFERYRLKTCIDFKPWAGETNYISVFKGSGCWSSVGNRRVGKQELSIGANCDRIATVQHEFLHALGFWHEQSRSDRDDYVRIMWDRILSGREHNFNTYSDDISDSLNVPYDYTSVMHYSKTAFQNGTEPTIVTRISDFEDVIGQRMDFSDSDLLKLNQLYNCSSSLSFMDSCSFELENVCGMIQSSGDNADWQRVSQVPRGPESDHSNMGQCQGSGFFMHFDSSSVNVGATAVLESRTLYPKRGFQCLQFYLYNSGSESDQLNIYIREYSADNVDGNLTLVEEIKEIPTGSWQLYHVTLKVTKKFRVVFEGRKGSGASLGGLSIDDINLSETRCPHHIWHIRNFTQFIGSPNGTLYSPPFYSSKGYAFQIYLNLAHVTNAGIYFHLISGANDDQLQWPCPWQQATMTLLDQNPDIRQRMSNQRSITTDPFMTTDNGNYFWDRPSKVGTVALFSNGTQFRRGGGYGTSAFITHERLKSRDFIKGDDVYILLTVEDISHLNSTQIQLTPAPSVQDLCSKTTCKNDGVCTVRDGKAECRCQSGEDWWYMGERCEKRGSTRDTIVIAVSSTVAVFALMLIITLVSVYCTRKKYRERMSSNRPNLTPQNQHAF
# Procedure: (§1) Recombinant human meprin α and meprin β were expressed using the Bac-to-Bac expression system (Gibco Life Technologies, Paisley, UK) as described before. Media and supplements were obtained from Gibco Life Technologies. Recombinant Baculoviruses were amplified in adherently growing Spodoptera frugiperda (Sf)9 insect cells at 27 °C in Grace’s insect medium supplemented with 10% fetal bovine serum, 50 units/mL penicillin, and 50 μg/mL streptomycin. Protein expression was performed in 500 mL suspension cultures of BTI-TN-5B1-4 insect cells growing in Express Five SFM supplemented with 4 mM glutamine, 50 units/mL penicillin, and 50 μg/mL streptomycin in Fernbach-flasks using a Multitron orbital shaker (INFORS AG, Bottmingen, Switzerland). Cells were infected at a density of 2 × 10^6 cells/mL with an amplified viral stock at a MOI of ~10. […] Meprins were activated by trypsin, which was removed afterwards by affinity chromatography using a column containing immobilized chicken ovomucoid, a trypsin inhibitor.
# (§2) Both assays followed the same general protocol. […] After 30 min incubation at RT, the reactions were started by addition of 5 µL of 2× solutions of substrates (20 µM, meprin α Mca-YVADAPK-K(Dnp), and for meprin β Mca-EDEDED-K(Dnp)).
# [9] = target: T7, meprin α (Homo sapiens, UniProt Q16819); test: Meprin α assay in a 384-well plate (fluorogenic substrate Mca-YVADAPK-K(Dnp)); assay type: biochemical
# T7 construct: Strep-tag; made in house; host or cells: BTI-TN-5B1-4 insect cells (baculovirus, amplified in Sf9)
# T7 sequence (Q16819 66-746): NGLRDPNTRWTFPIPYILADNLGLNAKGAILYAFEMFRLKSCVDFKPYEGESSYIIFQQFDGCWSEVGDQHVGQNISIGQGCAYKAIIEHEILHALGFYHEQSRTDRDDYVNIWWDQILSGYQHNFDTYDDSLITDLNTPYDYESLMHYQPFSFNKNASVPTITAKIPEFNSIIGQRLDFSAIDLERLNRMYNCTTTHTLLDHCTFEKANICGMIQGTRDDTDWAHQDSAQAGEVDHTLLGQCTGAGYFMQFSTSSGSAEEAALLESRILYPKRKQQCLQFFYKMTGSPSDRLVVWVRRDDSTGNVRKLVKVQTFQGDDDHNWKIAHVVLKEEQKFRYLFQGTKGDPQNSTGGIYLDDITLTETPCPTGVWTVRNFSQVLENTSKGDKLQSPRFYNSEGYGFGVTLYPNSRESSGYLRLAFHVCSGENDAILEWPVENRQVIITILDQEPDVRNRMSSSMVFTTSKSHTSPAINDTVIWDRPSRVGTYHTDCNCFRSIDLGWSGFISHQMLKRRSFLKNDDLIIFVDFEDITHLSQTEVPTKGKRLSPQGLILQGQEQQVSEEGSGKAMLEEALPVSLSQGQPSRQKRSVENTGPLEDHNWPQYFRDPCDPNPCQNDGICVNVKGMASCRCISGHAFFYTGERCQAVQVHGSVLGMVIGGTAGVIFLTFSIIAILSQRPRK
# Procedure: as §1, §2
# T3 sequence (P14780 94-707): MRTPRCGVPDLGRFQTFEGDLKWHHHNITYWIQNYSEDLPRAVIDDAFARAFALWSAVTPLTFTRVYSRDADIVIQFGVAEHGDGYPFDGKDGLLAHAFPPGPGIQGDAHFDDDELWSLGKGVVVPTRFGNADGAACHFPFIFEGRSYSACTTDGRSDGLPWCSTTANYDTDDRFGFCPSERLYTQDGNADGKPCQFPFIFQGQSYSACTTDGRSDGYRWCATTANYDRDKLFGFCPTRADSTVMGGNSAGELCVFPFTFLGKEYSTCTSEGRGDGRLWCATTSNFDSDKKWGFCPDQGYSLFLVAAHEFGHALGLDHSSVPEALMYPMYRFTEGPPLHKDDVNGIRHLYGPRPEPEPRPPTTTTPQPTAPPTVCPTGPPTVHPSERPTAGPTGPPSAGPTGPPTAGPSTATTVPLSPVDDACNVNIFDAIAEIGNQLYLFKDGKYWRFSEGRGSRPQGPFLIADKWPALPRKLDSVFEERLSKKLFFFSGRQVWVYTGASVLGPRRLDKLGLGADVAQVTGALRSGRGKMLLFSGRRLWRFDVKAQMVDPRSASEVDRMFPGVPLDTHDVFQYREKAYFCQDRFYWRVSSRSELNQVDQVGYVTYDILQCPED
# T4 sequence (P78536 215-824): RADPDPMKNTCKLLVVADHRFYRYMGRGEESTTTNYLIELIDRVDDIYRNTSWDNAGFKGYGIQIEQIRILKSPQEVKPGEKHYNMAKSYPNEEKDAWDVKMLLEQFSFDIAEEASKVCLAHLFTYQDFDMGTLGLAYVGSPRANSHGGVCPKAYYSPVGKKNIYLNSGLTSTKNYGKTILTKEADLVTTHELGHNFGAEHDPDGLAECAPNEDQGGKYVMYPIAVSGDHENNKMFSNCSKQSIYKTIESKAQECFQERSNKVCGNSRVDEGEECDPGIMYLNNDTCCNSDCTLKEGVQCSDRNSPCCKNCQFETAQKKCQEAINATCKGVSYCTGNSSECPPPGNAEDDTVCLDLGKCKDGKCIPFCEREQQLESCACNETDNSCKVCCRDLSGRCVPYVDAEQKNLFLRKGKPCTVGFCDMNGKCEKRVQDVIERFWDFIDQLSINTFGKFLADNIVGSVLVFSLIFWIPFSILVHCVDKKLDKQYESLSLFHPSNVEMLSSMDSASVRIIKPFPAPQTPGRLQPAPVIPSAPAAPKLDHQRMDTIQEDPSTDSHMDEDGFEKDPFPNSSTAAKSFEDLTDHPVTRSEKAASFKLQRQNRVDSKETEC
smiles,measurement,setting,value
O=C(CN(Cc1ccc(Cl)c(O)c1F)Cc1ccc(Cl)c(O)c1F)NO [1c],MMP13 % activity remaining,[1],86%
same,MMP2 % activity remaining,[2],95%
same,MMP9 % activity remaining,[3],91%
same,ADAM17 % activity remaining,[4],86%
same,ADAM10 % activity remaining,[5],86%
same,IC50,[6],0.19 ± 0.001 µM
O=C(Cc1c(-c2ccccc2)noc1-c1ccccc1)NO [2c],MMP13 % activity remaining,[1],80%
same,MMP2 % activity remaining,[2],87%
same,MMP9 % activity remaining,[3],86%
same,IC50,[7],0.813 ± 0.001 µM
same,ADAM17 % activity remaining,[4],62%
same,ADAM10 % activity remaining,[5],80%
same,IC50,[6],0.004 ± 0.001 µM
O=C(CSc1nnc(NC(=O)COc2ccccc2)s1)NO [SR19848],IC50,[8],0.329 µM
same,IC50,[9],0.217 µM
same,meprin α/β selectivity (in words),[9]; Figure 1,no meprin α/β selectivity
"COc1cc(OC)nc(SCc2nnc(SCC(=O)NO)n2-c2ccc(C(F)(F)F)cc2)n1 [SR24003, 2-((5-(((4,6-dimethoxypyrimidin-2-yl)thio)methyl)-4-(4-(trifluoromethyl)phenyl)-4H-1,2,4-triazol-3-yl)thio)-N-hydroxyacetamide]",IC50,"[8]; triplicate, ± SD",> 100 µM
same,IC50,"[9]; triplicate, ± SD",5.4 ± 1.2 µM
"COc1ccc(-n2c(CSc3nc(C)cc(C)n3)nnc2SCC(=O)NO)cc1 [SR24139, 2-((5-(((4,6-dimethylpyrimidin-2-yl)thio)methyl)-4-(4-methoxyphenyl)-4H-1,2,4-triazol-3-yl)thio)-N-hydroxyacetamide]",IC50,"[8]; triplicate, ± SD",60 ± 7 µM
same,IC50,"[9]; triplicate, ± SD",4.1 ± 0.8 µM
"COc1ccc(-n2c(CSc3nc(OC)cc(OC)n3)nnc2SCC(=O)NO)cc1 [SR24144, 2-((5-(((4,6-dimethoxypyrimidin-2-yl)thio)methyl)-4-(4-methoxyphenyl)-4H-1,2,4-triazol-3-yl)thio)-N-hydroxyacetamide]",inhibition of meprin β at 100 μM (in words),[8]; 100 μM,complete lack of inhibition
same,IC50,"[8]; triplicate, ± SD",> 100 µM
same,IC50,"[9]; triplicate, ± SD",8.7 ± 1.1 µM
"COc1cc(OC)nc(SCc2nnc(SCC(=O)NO)n2-c2ccccc2OC)n1 [SR24459, 2-((5-(((4,6-dimethoxypyrimidin-2-yl)thio)methyl)-4-(2-methoxyphenyl)-4H-1,2,4-triazol-3-yl)thio)-N-hydroxyacetamide]",IC50,"[8]; triplicate, ± SD",52 ± 1 µM
same,IC50,"[9]; triplicate, ± SD",12.1 ± 3.9 µM
"COc1cccc(-n2c(CSc3nc(OC)cc(OC)n3)nnc2SCC(=O)NO)c1 [SR24460, 2-((5-(((4,6-dimethoxypyrimidin-2-yl)thio)methyl)-4-(3-methoxyphenyl)-4H-1,2,4-triazol-3-yl)thio)-N-hydroxyacetamide]",IC50,"[8]; triplicate, ± SD",59 ± 10 µM
same,IC50,"[9]; triplicate, ± SD",10.3 ± 1.1 µM
"COc1cc(OC)nc(SCc2nnc(SCC(=O)NO)n2-c2ccc(Br)cc2)n1 [SR24462, 2-((4-(4-bromophenyl)-5-(((4,6-dimethoxypyrimidin-2-yl)thio)methyl)-4H-1,2,4-triazol-3-yl)thio)-N-hydroxyacetamide]",IC50,"[8]; triplicate, ± SD",> 100 µM
same,IC50,"[9]; triplicate, ± SD",11.2 ± 2.6 µM
"COc1cc(OC)nc(SCc2nnc(SCC(=O)NO)n2-c2ccc(F)cc2)n1 [SR24463, 2-((5-(((4,6-dimethoxypyrimidin-2-yl)thio)methyl)-4-(4-fluorophenyl)-4H-1,2,4-triazol-3-yl)thio)-N-hydroxyacetamide]",IC50,"[8]; triplicate, ± SD",> 100 µM
same,IC50,"[9]; triplicate, ± SD",10.4 ± 2.8 µM
"COc1cc(OC)nc(SCc2nnc(SCC(=O)NO)n2-c2cccc(C)c2)n1 [SR24467, 2-((5-(((4,6-dimethoxypyrimidin-2-yl)thio)methyl)-4-(m-tolyl)-4H-1,2,4-triazol-3-yl)thio)-N-hydroxyacetamide]",IC50,"[8]; triplicate, ± SD",> 100 µM
same,IC50,"[9]; triplicate, ± SD",2 µM and 10.3 µM
"COc1cc(OC)nc(SCc2nnc(SCC(=O)NO)n2-c2cccnc2)n1 [SR24718, 2-((5-(((4,6-dimethoxypyrimidin-2-yl)thio)methyl)-4-(pyridin-3-yl)-4H-1,2,4-triazol-3-yl)thio)-N-hydroxyacetamide]",IC50,"[8]; triplicate, ± SD",> 100 µM
same,IC50,"[9]; triplicate, ± SD",10.1 ± 2.3 µM
"CCN(CC)c1ccc(-n2c(CSc3nc(OC)cc(OC)n3)nnc2SCC(=O)NO)cc1 [SR26465, 2-((4-(4-(diethylamino)phenyl)-5-(((4,6-dimethoxypyrimidin-2-yl)thio)methyl)-4H-1,2,4-triazol-3-yl)thio)-N-hydroxyacetamide]",IC50,"[8]; triplicate, ± SD",75 ± 15 µM
same,meprin α/β fold selectivity (ratio of IC50 values),[9]; meprin α over meprin β,> 100 fold
same,IC50,"[9]; triplicate, ± SD",0.6 ± 0.06 µM
"COc1cc(OC)nc(SCc2nnc(SCC(=O)NO)n2-c2ccc(N3CCOCC3)cc2)n1 [SR26466, 2-((5-(((4,6-dimethoxypyrimidin-2-yl)thio)methyl)-4-(4-morpholinophenyl)-4H-1,2,4-triazol-3-yl)thio)-N-hydroxyacetamide]",IC50,"[8]; triplicate, ± SD",> 100 µM
same,IC50,"[9]; triplicate, ± SD",1.1 ± 0.1 µM
"COc1cc(OC)nc(SCc2nnc(SCC(=O)NO)n2-c2cccc3ccccc23)n1 [SR26467, 2-((5-(((4,6-dimethoxypyrimidin-2-yl)thio)methyl)-4-(naphthalen-1-yl)-4H-1,2,4-triazol-3-yl)thio)-N-hydroxyacetamide]",IC50,"[8]; triplicate, ± SD",> 100 µM
same,IC50,"[9]; triplicate, ± SD",2 ± 0.3 µM
